Measured values reported in patent US10570168B2, “2′ and/or 5′ amino-acid ester phosphoramidate 3′-deoxy adenosine derivatives as anti- cancer compounds” (NuCana plc, priority 2014, dated 2020).
Read-outs that look alike come from different tables or passages of the source.

Legend:
Format in all cases: cell-based
RL (CRL-2261) = assay: ATP (ViaLight plus) cytotoxicity assay
Description: Certain compounds of the invention were subjected to further studies to test the cytotoxic activity of certain compounds of the invention and also to measure their activity against 4 haematological cancer cell lines • TdT positive CEM (Human ALL) • TdT negative K562 (Human CML) • TdT negative H1-60 (Human ANLL) • RL (CRL-2261) non-HD lymphoma • The concentrations of the active metabolite dATP (Cordycepin triphosphate) in these cell lines was also measured. • The cytotoxic activity and the intracellular 3′-dATP concentrations were also studied in the presence of hENT1, Adenosine Kinase (AK) and Adenosine Deaminase pharmacological inhibitors in CEM and RL cancer cell lines. Said inhibitors that mimic known cancer resistance mechanisms. Methods Cell Culture
HL-60 (ATCC® CCL-240™), K562 (ATCC® CCL-243™), CCRF-CEM (ATCC® CRM-CCL-119™) and RL (ATCC® CRL-2261™) leukaemia cell lines, obtained from the American Type Culture Collection (ATCC), Middlesex. HL-60 and K562 cell lines are deoxynucleotidyl transferase-negative (TdT-ve), whereas CCRF-CEM cell line is TdT+ve.
HL-60, K562, CCRF-CEM and RL cell lines were cultured in RPMI-1640 medium (Sigma Aldrich, UK), which were supplemented with 10% Fetal Bovine Serum (FBS) (PAA Laboratories), 1% amphotericin B (5.5 ml) and 1% penicillin/streptomycin (5.5 ml) (PAA Laboratories) and grown in flasks at 37° C. incubator with 5% CO2.
The amount of ATP was used as a measurement of cell number and cell viability. ATP ViaLight™ plus assay kit (Lonza, USA: Product No. LT07-121) to detect ATP in cells treated in luminescence compatible 96 well plates (initial concentration of cells was 1×10^4 cells/well) with cordycepin and ProTides at concentrations of: 0, 0.1, 0.5, 1, 5 and 10 μM, followed by incubation for 72 hours at 37° C. incubator with 5% CO2. For inhibitor studies, 10 μM of NBTI or 1 μM EHNA or A-134974 was added and left for 5 minutes before adding the drugs (see section 5 for inhibitor details).
After incubation, 50 μl of cell lysis reagent was added to the 96 well plates to release the intracellular ATP, followed by 100 μl of ATP monitoring reagent (AMR). The luminescent values of each well were determined using FLUOstar OPTIMA microplate reader (BMG Labtech) which convert ATP into light by using luciferase enzyme. Therefore, the amount of luminescence produced was directly proportional to the amount of ATP.
Cell lines were treated in the same way as described above but before treatment with drugs, a number of inhibitors were added: • 1) Nitrobenzylthioinosine (NBTI) (Sigma-Aldrich, St. Louis, Mo., product # N2255) blocks nucleoside transporters • 2) EHNA hydrochloride (Sigma-Aldrich, St. Louis, Mo., product # E114) blocks adenosine deaminase • 3) Adenosine kinase inhibitor A-134974 dihydrochloride hydrate (Sigma-Aldrich, St. Louis, Mo., product # A2846): blocks adenosine kinase
The dose-response curves of cytotoxicity of the drugs was determined using non-linear regression analysis of percentage cell viability versus concentration and EC50 values were obtained. The intracellular assay was conducted in five replicates for each condition. Intracellular assay was determined using paired t test (two-tailed) analysis of 3′ATP/ATP concentration and p-values were obtained. For all the analysis, Prism Software program (GraphPad Software) was used and Microsoft Powerpoint® 2013 was used to plot the results.

HS445 = assay: Solid tumour and haematological malignancy assay (CellTiterGlo); settings: for IC50: read-out: IC50 (absolute IC50); for Emax: read-out: MI %
How it was run: (§1)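 Cells were treated in duplicate with a 9-point, 3.16-fold dilution series for about 72 h under standard growth conditions. Final concentrations ran from […] to 19.9 nM, with 0.5% DMSO. Viability was read by CellTiter-Glo luminescence.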

Z138 = assay: as above; settings: Homo sapiens; for IC50: read-out: IC50 (absolute IC50); for Emax: read-out: MI %
How it was run: as §1

MV4-11 = assay: as above; settings: Homo sapiens; for IC50: read-out: IC50 (absolute IC50); for Emax: read-out: MI %
How it was run: as §1

BxPC-3 = assay: as above; settings: Homo sapiens, read-out: IC50 (absolute IC50)
How it was run: as §1

SW620 = assay: as above; settings: Homo sapiens; for IC50: read-out: IC50 (absolute IC50); for Emax: read-out: MI %
How it was run: as §1

THP-1 = assay: as above; settings: Homo sapiens; for IC50: read-out: IC50 (absolute IC50); for Emax: read-out: MI %
How it was run: as §1

[1] = CRL, with AK (adenosine kinase inhibitor A-134974, 1 μM)
[2] = CRL, with EHNA 1 μM (adenosine deaminase blocker)
[3] = CRL, with NBTI 10 μM (nucleoside transporter blocker)

SMILES	IC50 (RL (CRL-2261); 72 h, CRL (RL, CRL-2261)) [µM]	IC50 (RL (CRL-2261); CRL, Control (no inhibitor)) [µM]	(FD) fold difference compared to control (RL (CRL-2261); CRL, IC50 with AK inhibitor)	(FD) fold difference compared to control (RL (CRL-2261); CRL, IC50 with EHNA)	(FD) fold difference compared to control (RL (CRL-2261); CRL, IC50 with NBTI)	IC50 (RL (CRL-2261); [1]) [µM]	IC50 (RL (CRL-2261); [2]) [µM]	IC50 (RL (CRL-2261); [3]) [µM]	IC50 (HS445; Hs 445, 72 h) [µM]	IC50 (Z138; Z-138, 72 h) [µM]	Emax (Z138; Z-138, 72 h) [%]	IC50 (MV4-11; MV4-11, 72 h) [µM]	Emax (MV4-11; MV4-11, 72 h) [%]	IC50 (BxPC-3; BXPC-3, 72 h) [µM]	IC50 (SW620; SW-620, 72 h) [µM]	IC50 (THP-1; THP-1, 72 h) [µM]	Emax (HS445; Hs 445, 72 h) [%]	Emax (SW620; SW-620, 72 h) [%]	Emax (THP-1; THP-1, 72 h) [%]	(FD) fold difference compared to Cordycepin = Cordycepin IC50/ProTide IC50 (RL (CRL-2261); CRL (RL, CRL-2261))	also measured
C[C@H](NP(=O)(OC[C@@H]1C[C@@H](O)[C@H](n2cnc3c(N)ncnc32)O1)Oc1cccc2ccccc12)C(=O)OCc1ccccc1 (stereo partly drawn) [B, (2S)-benzyl 2-(((((2S,4R,5R)-5-(6-amino-9H-purin-9-yl)-4-hydroxytetrahydrofuran-2-yl)methoxy)(naphthalen-1-yloxy)phosphoryl)amino)propanoate]	0.4	3.1	(1)	(2)	(1)	2.8	5.2	2.6	5 to 15	5 to 15	100	0.1 to 5	99	5 to 15	5 to 15	15 to 100					
Nc1ncnc2c1ncn2[C@@H]1O[C@H](COP(=O)(NCC(=O)OCc2ccccc2)Oc2ccccc2)C[C@H]1O (stereo partly drawn) [C, Benzyl 2-(((((2S,4R,5R)-5-(6-amino-9H-purin-9-yl)-4-hydroxytetrahydrofuran-2-yl)methoxy)(phenoxy)phosphoryl)amino)acetate]									15 to 100	5 to 15	100	5 to 15	106	15 to 100	15 to 100	15 to 100	102	100	99		
C[C@H](NP(=O)(OC[C@@H]1CC(O)[C@H](n2cnc3c(N)ncnc32)O1)Oc1ccccc1)C(=O)OCc1ccccc1 (stereo partly drawn) [Compound A, 3′-deoxyadenosine-5′-O-[phenyl(benzyloxy-L-alaninyl)] phosphate]	2.1	3.6	(3)	(1)	(1)	10.2	2.9	2.6	15 to 100	15 to 100	95	0.1 to 5	99	15 to 100	15 to 100	15 to 100	98	85	74	(12)	
Nc1ncnc2c1ncn2[C@@H]1O[C@H](CO)C[C@H]1O [Cordycepin, 3′-deoxyadenosine, reference compound]																					IC50 (RL (CRL-2261); 72 h, CRL (RL, CRL-2261), 72 hours, read-out: IC50): 24.5 µM; IC50 (RL (CRL-2261); CRL, Control (no inhibitor), read-out: IC50): 7.3 µM; IC50 (RL (CRL-2261); CRL, with AK (adenosine kinase inhibitor A-134974, 1 μM), read-out: IC50): 28.6 µM; IC50 (RL (CRL-2261); CRL, with EHNA 1 μM (adenosine deaminase blocker), read-out: IC50): 13.2 µM; IC50 (RL (CRL-2261); CRL, with NBTI 10 μM (nucleoside transporter blocker), read-out: IC50): 17.9 µM; IC50 (HS445; Hs 445, HS445, 72 hr): > 100 µM; Emax (HS445; Hs 445, HS445, 72 hr): 2%; IC50 (Z138; Z-138, Z138, 72 hr): 5 to 15 µM; Emax (Z138; Z-138, Z138, 72 hr): 95%; IC50 (MV4-11; MV4-11, 72 hr): > 100 µM; Emax (MV4-11; MV4-11, 72 hr): 1%; IC50 (BxPC-3; BxPC-3, 72 hr): > 100 µM; IC50 (SW620; SW-620, SW620, 72 hr): > 100 µM; Emax (SW620; SW-620, SW620, 72 hr): 10%; IC50 (THP-1; THP-1, 72 hr): > 100 µM; Emax (THP-1; THP-1, 72 hr): -3%
COC(=O)C(C)(C)NP(=O)(OC[C@@H]1C[C@@H](O)[C@H](n2cnc3c(N)ncnc32)O1)Oc1cccc2ccccc12 (stereo partly drawn) [E, Methyl 2-(((((2S,4R,5R)-5-(6-amino-9H-purin-9-yl)-4-hydroxytetrahydrofuran-2-yl)-methoxy)(naphthalen-1-yloxy)phosphoryl)amino)-2-methylpropanoate]	11	8.2	(1)	(1)	(1)	7.1	5.9	8.2	15 to 100	15 to 100		5 to 15		15 to 100	15 to 100	> 100				(2)	
CCOC(=O)CCc1ccccc1OP(=O)(N[C@@H](C)C(=O)OCc1ccccc1)OC[C@@H]1C[C@@H](O)[C@H](n2cnc3c(N)ncnc32)O1 (stereo partly drawn) [F, (2S)-benzyl 2-(((((2S,4R,5R)-5-(6-amino-9H-purin-9-yl)-4-hydroxytetrahydrofuran-2-yl)methoxy)(2-(3-ethoxy-3-oxopropyl)phenoxy)phosphoryl)amino)propanoate]	3.4								15 to 100	15 to 100		0.1 to 5	100	15 to 100	15 to 100	15 to 100		90	100	(7)	
